Assay: gradient 5% acetonitrile 3 min, to 50% in 2 min, to 85% in 15 min, held 3 min, 100 µL/min
Settings: column: Zorbax Extend-C18 2.1 x 50 mm; eluents: water / acetonitrile, 0.1% formic acid
How it was run: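 Retention times come from adduct peaks that were picked computationally and then checked by hand. The standards, pure and pooled in mixtures of ~100 molecules, were run on a Zorbax Extend-C18 column (2.1 × 50 mm, 1.8 μm) at 100 μL/min with water and acetonitrile, each with 0.1% formic acid. Detection was by quadrupole time-of-flight mass spectrometry in positive and negative ionization mode, with a dead volume of 40 μL and a dwell volume of 900 μL.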

| RP-LC retention time | SMILES |
| --- | --- |
| 777 s | O=C1NC2(CCN(C(=O)c3ccc(F)c(F)c3)CC2)Nc2c(Cl)cccc21 |
| 528 s | O=C(NC1CC1)[C@@H]1C[C@H](Oc2cccnc2)CN1C(=O)c1ccc2ncccc2c1 |
| 572 s | CC(=O)Nc1ccc(OCC(=O)NC2CCN(Cc3ccccc3)CC2)nc1 |
| 778 s | CCOC(=O)COc1cc(-c2ccc(C)cc2)nc2ccc(NC(=O)c3ccco3)cc12 |
| 924 s | COc1ccc(Cn2nnc(C(=O)NCC3CC3)c2-n2cccc2)cc1 |
| 669 s | CNC(=O)C1CCCN(c2nc3ncn(CC(=O)Nc4cc(Cl)ccc4C)c(=O)c3s2)C1 (stereo unspecified) |
| 626 s | CNC(=O)C1CC(=O)N(c2ccc(C)cc2)C1 (stereo unspecified) |
| 729 s | O=C(O)c1ccc2c(c1)CC(=O)N2Cc1cccc(F)c1 |
| 1280 s | Cc1ccc(-c2noc(-c3cccc(S(=O)(=O)N4CCCC4)c3)n2)cc1 |
| 725 s | COc1cccc(NC(=O)Cn2cnc(-c3noc(C4CC4)n3)c2)c1 |
| 1020 s | CC(=O)Oc1ccccc1C1=NN(C(C)=O)C(c2ccc(Cl)cc2)O1 (stereo unspecified) |
| 965 s | Cn1c(=O)c(N2CCC(NC(=O)Nc3cccc(Br)c3)CC2)nc2ccccc21 |
| 1120 s | CCN(Cc1ccccc1)C(=O)c1cn(-c2cc(N3CCC(C)CC3)ncn2)cn1 |
| 763 s | Cc1ccc(N(C)C(=O)c2cc(C)n3nc(-c4ccccn4)cc3n2)cc1 |
| 791 s | O=C(C1=CN(c2ccc(Cl)cc2)c2ccccc2S1(=O)=O)N1CCOCC1 |
| 648 s | COc1ccc(N2CCN(c3ncc4c(n3)CCN(Cc3cccc(F)c3)C4)CC2)cc1 |
| 1250 s | O=C(Nc1ccc(F)cc1F)c1c(O)c2cccnc2n(-c2ccccc2)c1=O |
| 672 s | O=C(NCc1ccccc1)Nc1cccc(-c2ccc(N3CCOCC3)nn2)c1 |
| 572 s | CN(C)C(=O)c1ccc2c(c1)N(CC(=O)Nc1cccnc1)C(=O)CO2 |

| RP-LC retention time | SMILES |
| --- | --- |
| 911 s | Cc1cc(N2CCCC2)nc(N2CCN(S(=O)(=O)c3ccc(-c4ccccc4)cc3)CC2)n1 |
| 595 s | O=C(Nc1cccc(-c2nnc3n2CCCC3)c1)c1ccn[nH]1 |
| 754 s | O=C(C1=CN(c2ccccc2)c2cc(F)ccc2S1(=O)=O)N1CCOCC1 |
| 750 s | COCc1nc(C2CCN(C(=O)C3(c4ccccc4)CC3)C2)no1 (stereo unspecified) |
| 605 s | Cc1ccc(C(=O)N2CCCn3cc(-c4ccccc4)nc32)cn1 |
| 584 s | O=C(NCCCN1CCCC1=O)c1ccc2ncnc(N3CCCCC3)c2c1 |
| 967 s | O=C(c1ccc2c(c1)CCC(=O)N2Cc1ccccc1)N1CCN(c2ccccc2F)CC1 |
| 655 s | CCCNC(=O)C1CCN(c2ccc(SCC(=O)Nc3ccccc3Cl)nn2)CC1 |
| 621 s | Cc1noc(C)c1CN1CCC(NC(=O)c2cc3ccccc3[nH]2)CC1 |
| 742 s | CCn1c(C)c(CN2CCC(C(=O)NCc3ccccc3C)CC2)c2ccccc21 |
| 1300 s | Cc1ccccc1N1CCN(c2nccn3nc(-c4ccccc4)cc23)CC1 |
| 1110 s | O=C(COc1cccc(Cl)c1)Nc1nc(-c2ccccc2)cs1 |
| 860 s | Cc1noc(C2(NC(=O)c3cccc(F)c3)CCCCC2)n1 |
| 622 s | CC(=O)N1CCN(C(=O)C2CCCN(c3ccc(-c4ccc(C)c(C)c4)nn3)C2)CC1 (stereo unspecified) |
| 548 s | Cc1noc(C)c1CCC(=O)NCCOc1cccc2cccnc12 |
| 665 s | CCC1CCCCN1C(=O)c1cnc2nc(C)ccc2c1Nc1ccc(OC)cc1 (stereo unspecified) |
| 588 s | CC(=O)c1ccc(S(=O)(=O)N2CCCC(C)(C(=O)NCc3ccccc3C)C2)cc1 (stereo unspecified) |
| 589 s | CCC(=O)N1CCc2c(C(=O)N3CCN(c4ccccn4)CC3)cccc21 |
| 892 s | CN1C(=O)Cc2cc(C(=O)NC3CCN(Cc4ccccc4)CC3)ccc21 |

Second part, the molecule before the results:

| SMILES | RP-LC retention time |
| --- | --- |
| CC(NC(=O)Cn1cc(C#N)c2ccccc21)c1ccc2c(c1)OCCCO2 (stereo unspecified) | 881 s |
| COc1cc(C(=O)N2CCC(CC(=O)N3CCOCC3)CC2)cc(OC)c1OC | 618 s |
| Cc1ccccc1Cn1cc(CCC(=O)NCCN2CCOCC2)c2ccccc21 | 639 s |
| COC(=O)c1ccccc1NC(=O)CN1C(=O)CN=C(c2ccccc2)c2ccccc21 | 958 s |
| Cc1nc(-c2cc(S(=O)(=O)Nc3ccc(F)c(Cl)c3)c(C)s2)cs1 | 1030 s |
| CCNC(=O)c1cc(C(C)(C)C)[nH]n1 | 647 s |
| COC1CCC12CCN(Cc1cccc(F)c1)CC2 (stereo unspecified) | 637 s |
| COCCc1noc(C2Cc3ccccc3N2C(=O)NCC(=O)OC)n1 (stereo unspecified) | 720 s |
| CCOCCCNC(=O)N1CCCC(c2nn[nH]n2)C1 (stereo unspecified) | 591 s |
| Cc1cc(C(=O)NCc2ccc(N(C)C)cc2)c2c(=O)n(C)c(=O)n(C)c2n1 | 578 s |
| CCCCN(C)C(=O)C(C)n1nc(C)c2nn(-c3ccccc3)c(-n3cccc3)c2c1=O (stereo unspecified) | 1010 s |
| CCOc1cccc(-c2noc(-c3nnn(Cc4nc(-c5ccccc5OC)oc4C)c3C)n2)c1 | 1190 s |
| CCCN1CCN(C(=O)Cn2nc(C)c3sc(-c4ccccc4)nc3c2=O)CC1 | 623 s |
| CCCN1C(=O)CCc2cc(NS(=O)(=O)c3ccc(Cl)c(Cl)c3)ccc21 | 983 s |
| Cc1ccc(-c2nc(NC(=O)c3cc(C)on3)sc2C)cc1 | 1090 s |
| O=S(=O)(c1cccc(C(F)(F)F)c1)N1CCN(c2cnn3cnnc3c2)CC1 | 668 s |
| COC(=O)C(C)NC(=O)N1CCC2(CC1)NC(=O)c1ccccc1O2 (stereo unspecified) | 621 s |
| CCOc1cccc2c1OC1(CCN(C(C)=O)CC1)N1N=C(c3ccc4c(c3)OCO4)CC21 (stereo unspecified) | 826 s |
| Cc1sc(-c2nnc(C(C)C)o2)cc1NC(=O)C1CCC1 | 892 s |
| Cn1c(=O)n(CC(=O)O)c(=O)c2c1nc1n2CCCN1c1ccc(Cl)cc1 | 749 s |
| Cc1ccc(-n2nc3c(N4CCCC(C(=O)NCc5ccc(Cl)cc5)C4)nnc(C)c3c2C)cc1 (stereo unspecified) | 789 s |
| Cn1cnc(S(=O)(=O)N2CCC(C(=O)N3CCCCCC3)CC2)c1 | 638 s |
| Cc1noc(-c2ccc(-n3cnc(C(=O)NCC4CC4)c3)nc2)n1 | 727 s |
| Cc1ccc(Cn2nc3ccc(S(=O)(=O)N4CCCCC4)cn3c2=O)cc1 | 952 s |
| O=C(Nc1ccc(Nc2ccncc2)cc1)c1ccc(Nc2ccnc3ccc([N+](=O)[O-])cc23)cc1[N+](=O)[O-] | 651 s |
| Cc1nnc2c(NS(=O)(=O)c3ccccc3C(F)(F)F)cccn12 | 689 s |
| CCCN1CCN(c2ncnc3sc(C(=O)NCCCN4CCCC4)c(C)c23)CC1 | 583 s |

| SMILES | RP-LC retention time |
| --- | --- |
| COCC1CN(S(=O)(=O)c2cccc(C#N)c2)CCC1(F)F (stereo unspecified) | 892 s |
| CC(Cc1cccs1)NS(=O)(=O)c1ccc2c(c1)OCCO2 (stereo unspecified) | 840 s |
| CCCN1CCN(C(=O)c2c(C)sc3ccn(CC(C)C)c(=O)c23)CC1 | 618 s |
| COc1ccc(CN2CCOC2=O)cc1OC | 649 s |
| Cc1cc2c(cc1S(=O)(=O)N1CCCC1C(=O)Nc1ccc(F)cc1Cl)OC(C)C(=O)N2 (stereo unspecified) | 849 s |
| O=C(NCC1(N2CCOCC2)CCOC1)Nc1ccccc1 (stereo unspecified) | 572 s |
| O=C(NCCCN1CCCC1)c1cc2n(n1)CCCN(Cc1ccc(F)cc1)C2=O | 619 s |
| CCC(C)NC(=O)Cn1nc2cc(C)nc(-c3ccc(C(F)(F)F)cc3)n2c1=O (stereo unspecified) | 661 s |
| NCCNS(=O)(=O)c1cccc2c(Cl)cccc12 | 701 s |
| Cc1nc(CC(=O)Nc2nc(-c3ccc(C)c(C)c3)cs2)cs1 | 989 s |
| Cc1noc(C)c1S(=O)(=O)N(Cc1cccs1)Cc1cccn1C | 1000 s |
| Cc1ccc(-c2nc(NC(=O)CCCOc3ccc(Cl)cc3)sc2C)cc1 | 1250 s |
| COc1ccc(CCC(=O)N2CCN(c3cc(C)c4ccccc4n3)CC2)cc1OC | 645 s |
| CC1=C(c2ccc(C)cc2)S(=O)(=O)N=C1N1CCCN(C(=O)C2CCCO2)CC1 (stereo unspecified) | 733 s |
| COc1ccc(NC(=O)Cn2c(C)cc(-c3nnc(C)o3)c2C)cc1 | 732 s |
| CCC1CCCCN1CCCNC(=O)C1CCN(c2ccc(N3CCCCC3)nn2)CC1 (stereo unspecified) | 561 s |
| COC(=O)N1CCN(CCNC(=O)NCCCc2ccccc2)CC1 | 559 s |
| COc1ccc(-c2nc(-c3cccc(-c4ccn[nH]4)c3)no2)c(OC)c1 | 936 s |
| O=c1c2ccccc2n(Cc2nc(-c3ccc(Br)cc3)no2)c(=O)n1CC1CCCO1 (stereo unspecified) | 1120 s |
| Cc1nn(-c2nc(-c3ccc(F)cc3)cs2)c(C)c1CC(=O)Nc1cccc(Cl)c1 | 772 s |
| COc1ccc(-c2ccc(=O)n(CCNC(=O)c3ccno3)n2)cc1 | 628 s |
| Cc1oc(C2CCN(S(=O)(=O)CCc3ccccc3)CC2)nc1C(=O)N(C)C | 816 s |
| Cc1ccc(C)c(-c2cc(C(N)=O)[nH]n2)c1 | 695 s |
| CC(C)CCNC(=O)Cn1c(=O)c2cccn2c2ccc(F)cc21 | 856 s |
| CCc1ccc(-c2cc(C(N)=O)[nH]n2)cc1 | 708 s |
| COCCOCc1nc(C2CCN(S(=O)(=O)c3ccc(OC)cc3)C2)no1 (stereo unspecified) | 791 s |

From the METLIN SMRT retention time set (Domingo-Almenara et al. 2019)
